Measurements taken from publication doi:10.1101/2025.07.08.663693v1 (biorxiv, 2025).

Tests used:
[1] = molecular target: T1, hSLIT2-His (Homo sapiens, UniProt O94813); test: TRIC/MST dose response; type: binding
T1 sequence (O94813 31-1529): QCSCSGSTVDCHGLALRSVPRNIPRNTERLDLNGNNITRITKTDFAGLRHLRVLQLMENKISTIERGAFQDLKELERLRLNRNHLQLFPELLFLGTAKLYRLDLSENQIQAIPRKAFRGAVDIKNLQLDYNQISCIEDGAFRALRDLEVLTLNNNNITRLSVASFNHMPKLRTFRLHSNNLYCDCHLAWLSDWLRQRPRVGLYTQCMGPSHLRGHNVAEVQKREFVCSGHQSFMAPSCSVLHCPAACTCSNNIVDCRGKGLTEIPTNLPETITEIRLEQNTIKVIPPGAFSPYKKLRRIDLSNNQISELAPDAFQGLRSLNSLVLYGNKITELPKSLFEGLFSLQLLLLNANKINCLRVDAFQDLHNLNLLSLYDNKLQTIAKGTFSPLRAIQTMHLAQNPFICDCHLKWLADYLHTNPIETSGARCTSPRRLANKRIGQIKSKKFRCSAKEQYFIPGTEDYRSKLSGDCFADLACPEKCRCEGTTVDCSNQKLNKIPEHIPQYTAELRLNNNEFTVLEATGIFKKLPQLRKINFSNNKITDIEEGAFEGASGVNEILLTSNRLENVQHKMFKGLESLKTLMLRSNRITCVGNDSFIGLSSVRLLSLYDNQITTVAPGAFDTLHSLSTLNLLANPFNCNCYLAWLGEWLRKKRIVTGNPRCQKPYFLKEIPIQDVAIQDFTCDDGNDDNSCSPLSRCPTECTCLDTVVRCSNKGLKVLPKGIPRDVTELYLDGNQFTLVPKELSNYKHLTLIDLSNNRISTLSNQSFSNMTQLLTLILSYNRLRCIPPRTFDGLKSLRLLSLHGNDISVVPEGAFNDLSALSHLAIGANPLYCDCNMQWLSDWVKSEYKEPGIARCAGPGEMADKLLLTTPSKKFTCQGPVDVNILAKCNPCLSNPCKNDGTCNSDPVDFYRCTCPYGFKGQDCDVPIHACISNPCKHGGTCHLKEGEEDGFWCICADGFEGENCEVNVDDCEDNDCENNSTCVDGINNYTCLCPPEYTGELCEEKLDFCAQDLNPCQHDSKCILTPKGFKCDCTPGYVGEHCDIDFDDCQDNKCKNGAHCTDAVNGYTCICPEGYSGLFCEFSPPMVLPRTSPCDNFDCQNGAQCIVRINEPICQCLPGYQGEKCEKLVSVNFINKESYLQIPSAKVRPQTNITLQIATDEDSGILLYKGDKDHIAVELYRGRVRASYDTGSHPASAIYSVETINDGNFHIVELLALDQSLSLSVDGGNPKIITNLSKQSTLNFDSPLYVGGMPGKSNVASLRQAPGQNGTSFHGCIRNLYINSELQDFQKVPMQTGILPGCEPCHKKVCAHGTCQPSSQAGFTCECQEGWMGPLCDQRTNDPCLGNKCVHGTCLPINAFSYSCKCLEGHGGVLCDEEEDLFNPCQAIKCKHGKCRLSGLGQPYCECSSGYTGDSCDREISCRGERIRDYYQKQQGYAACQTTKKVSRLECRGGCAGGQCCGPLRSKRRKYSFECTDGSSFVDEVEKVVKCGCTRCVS

[2] = molecular target: T2, SLIT2/ROBO1 (Homo sapiens, UniProt O94813); test: TR-FRET SLIT2/ROBO1 interaction inhibition; type: binding
T2 sequence (O94813 31-1529): T1 sequence (O94813 31-1529)
T2 sequence (Q9Y6N7 26-897 partner limits assumed): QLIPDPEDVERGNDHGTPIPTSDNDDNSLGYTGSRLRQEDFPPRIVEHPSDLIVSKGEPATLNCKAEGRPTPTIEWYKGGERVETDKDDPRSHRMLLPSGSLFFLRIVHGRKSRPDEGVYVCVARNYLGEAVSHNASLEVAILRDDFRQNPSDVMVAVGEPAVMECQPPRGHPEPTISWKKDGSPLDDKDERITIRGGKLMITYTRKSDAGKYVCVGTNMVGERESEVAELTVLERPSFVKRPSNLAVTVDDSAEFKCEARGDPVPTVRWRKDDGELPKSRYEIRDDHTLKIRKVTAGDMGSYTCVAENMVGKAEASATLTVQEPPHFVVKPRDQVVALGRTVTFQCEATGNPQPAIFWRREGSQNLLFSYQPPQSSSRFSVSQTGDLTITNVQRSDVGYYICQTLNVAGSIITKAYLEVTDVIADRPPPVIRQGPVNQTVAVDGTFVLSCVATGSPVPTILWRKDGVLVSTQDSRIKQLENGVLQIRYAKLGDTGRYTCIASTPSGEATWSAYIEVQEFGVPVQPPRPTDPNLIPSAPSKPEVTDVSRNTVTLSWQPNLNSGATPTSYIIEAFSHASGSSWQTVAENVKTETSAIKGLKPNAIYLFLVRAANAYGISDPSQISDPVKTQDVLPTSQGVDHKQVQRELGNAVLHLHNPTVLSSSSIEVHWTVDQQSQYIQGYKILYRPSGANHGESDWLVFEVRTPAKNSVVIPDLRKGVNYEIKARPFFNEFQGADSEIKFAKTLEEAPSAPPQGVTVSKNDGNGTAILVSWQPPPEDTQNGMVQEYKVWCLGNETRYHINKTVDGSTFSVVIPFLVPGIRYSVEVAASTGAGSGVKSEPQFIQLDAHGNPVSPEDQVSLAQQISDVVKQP

Work on C=C(c1ccc(C(=O)O)cc1)c1cc2c(cc1C)C(C)(C)CCC2(C)C [bexarotene] yielded a Kd [1] of 2.62 µM and an IC50 [2] of 22.8 ± 3.85 µM.
